# Legend:
# [1] = Ascorbate depletion assay, 9,10-PQ-sponsored oxidation, recycling of DHA; conditions: 9,10-PQ model, 200 μM added at 60 minutes
# Procedure: (§1) The kinetics of ascorbate oxidation, sponsored by both 1 μM 9,10-PQ and 2 μM copper sulphate (CuSO4), was examined using the ascorbate depletion assay (Kelly et al, Res. Rep. Health Eff. Inst., 163, 3 (2011). 9,10-PQ was employed so that the action of NBMI could be examined in isolation of its chelation properties.
# (§2) All experiments were performed in triplicate in UV 96 well flat-bottomed plates (Greiner bio-one) at a final volume of 200 μL. Exposures were initiated by the addition of 20 μL of a concentrated stock of ascorbate (2 mM) into each well containing 160 μL of Chelex-100 resin treated water (containing 10% DMSO), plus either 10 μL of water, CuSO4 stock solution at 4 mM or 9,10-PQ stock solution at 2 mM, and 10 μL of NMBI (4 mM and […]).
# (§3) All solutions were prepared in Chelex-100 resin treated water (containing 10% DMSO). This yielded final concentrations in the wells of […], 2 μM CuSO4, or 1 μM 9,10-PQ and between 10 and 200 μM of NBMI.
# (§4) Immediately prior to the addition of the ascorbate to each assay well, the plate was pre-incubated for 10 minutes at 37° C. in a plate reader (Spectra Max 190). During the exposure, the plate was maintained at this temperature. After addition of ascorbate, the concentration remaining in each well was monitored every 2 minutes for a period of two hours by measuring the absorbance at 265 nm. The ascorbate concentration was determined with reference to a standard curve, with the rate of ascorbate oxidation determined by performing a linear regression through the initial part of a concentration verses time plot using Microcal Software Limited's OriginLab (version 5.0). This was performed for each of the triplicates and the rate of ascorbate depletion was finally expressed as mean mol s 1×10^−9 depletion of ascorbate±standard deviation.
# (§5) For the experiments in which the impact of adding NBMI to the ascorbate was measured, CuSO4 and 9,10-PQ depletion assays were examined later in the time course. The plates were ran with 190 μL only for the first 55-60 minutes, after which they were removed from the plate reader and 10 μL of either the NMBI or the known reducing agent, DTT stock solution, or water was added to each well. The plate was then returned to the plate reader and the absorbance at 265 nm monitored for a further 60 minutes.
# (§6) The immediate increase in the measured ascorbate concentrations was determined and is referred to as the ‘jump’, as a measure of immediate recycling capacity. The sustained ‘increase’ over the remaining 60 minutes of the incubation was also determined.
# [2] = Ascorbate depletion assay, CuSO4-sponsored oxidation, recycling of DHA; conditions: CuSO4 model, 200 μM added at 60 minutes
# Procedure: as §1, §2, §3, §4, §5, §6
# [3] = system: IL-6 and IL-8 secretion in A549 cells; test: Particle-induced secretion of pro-inflammatory cytokines (ELISA) in A549 cells; assay type: cell-based; conditions: pre-incubation 5 mM NAC (positive control); cell line not specified (A549 and BEAS-2B tested)
# Procedure: Secretion of the pro-inflammatory cytokines interleukin (IL)-6, IL-8 (as well as GM-CSF and MCP-1) into cell media in response to particle exposure was measured in A549 and BEAS-2B cells using the following method.
# Lung epithelial cells were seeded at 5×10^4 in 24-well plates. After pre-incubation with NBMI, the anti-oxidant compound, N-acetyl-L-cysteine (NAC), which was used as a positive control, or vehicle, for 3 hours the medium was removed.
# Fresh media containing various particles (as below) in different concentrations was in a total volume of 0.5 ml for an additional 24 hours. The supernatants were then separated from the cells by centrifugation.
# IL-8, IL-6, GM-CSF and MCP-1 were measured in the cell free fluid using the DuoSet ELISA Development kit (R&D Systems, Abingdon, UK) according to manufacturer's protocol.
# Exposure to medium only served as negative control. Each experiment was performed twice with 4 replicates.
# The effect of pre-incubation with 50 μM NBMI on particle-induced cytokine formation was tested at various concentrations of relevant particles.
SMILES,immediate rebound increase in ascorbate [1] [µM],whether recovery of ascorbate was sustained [1],immediate 'jump' in ascorbate concentration [2] [µM],sustained 'increase' in ascorbate over remaining 60 minutes [2] [µM],reduction of secretion of inflammatory cytokines [3]
"O[C@H](CS)[C@H](O)CS (racemic) [DTT, dithiothreitol, reference compound]",5.1,not sustained,7.93 ± 6.58,10.79 ± 2.45,–
"CC(=O)N[C@@H](CS)C(=O)O [NAC, N-acetyl-L-cysteine, reference compound]",–,–,–,–,effective in reducing the secretion of inflammatory cytokines

# Reference: patent US9782368B2, “Use of N,N-bis-2-mercaptoethyl isophthalamide” (EMERAMED LIMITED, priority 2014, dated 2017)
